What was measured:
[1] = Singlet oxygen phosphorescence at 1270 nm, methanol, pulsed laser 532 nm; type: physicochemical; details: near 5 μM, equi-absorbant at 532 nm, excited at 532 nm
Protocol: The photosensitizers, e. g., HPPH (control), 2 and 4 were individually dissolved in methanol (concentration: 5 μM) in polystyrene cuvettes and excited at 532 nm using a pulsed laser. Phosphorescence of singlet oxygen was detected at 1270 nm.
Before evaluating the imaging and photosensitizing potential of the chlorin 4 with extended ring system, its singlet oxygen producing ability was compared with the related chlorin 2. In brief, both compounds were individually dissolved in methanol in equi-absorbant (at 532 nm) concentrations near 5 μM and excited at 532 nm using a pulsed laser. The phosphorescence of singlet oxygen was detected at 1270 nm. From the results summarized in FIG. 4, it can be seen that compared to chlorin 2 with a five-member isocyclic ring, the related analog 4 with an extended ring system had remarkably lower singlet oxygen producing ability. Singlet oxygen quantum yields were φ=0.29 and φ=0.02 respectively, compared to HPPH φ=0.45.

[2] = Nanosecond laser flash transient absorption of triplet excited state in PhCN; type: physicochemical
Protocol: The decay time profiles at 580 nm in (b) argon- and (c) air-saturated PhCN. The single-exponential fitting curves are shown as gray lines.
Singlet oxygen is generated by energy transfer from the triplet excited state of 4 to molecular oxygen (O2). […] The decay profile of T-T absorption was obeyed with the single exponential curve (FIG. 6b). The lifetime was determined to be τ=38 μs. […] The energy transfer rate constant was determined to be 1.4×10^9M^−1 s^−1, indicating the efficient energy transfer occurred between the triplet excited state of 4 and O2 to for singlet oxygen generation.
Instrumentation: Measurement of fluorescence quantum yields were carried out on a Hamamatsu C9920-0X(PMA-12) U6039-05 fluorescence spectrofluorometer. Femtosecond laser flash photolysis was conducted using a Clark-MXR 2010 laser system and an optical detection system provided by Ultrafast Systems (Helios). The source for the pump and probe pulses were derived from the fundamental output of Clark laser system (775 nm, 1 mJ pulse-1 and fwhm=150 fs) at a repetition rate of 1 kHz. A second harmonic generator introduced in the path of the laser beam provided […] laser pulses for excitation. A 95% of the fundamental output of the laser was used to generate the second harmonic, while 5% of the deflected output was used for white light generation. Prior to generating the probe continuum, the laser pulse was fed to a delay line that provided an experimental time window of 1.6 ns with a maximum step resolution of 7 fs. The pump beam was attenuated at 5 μJ pulse-1 with a spot size of 2 mm diameter at the sample cell where it was merged with the white probe pulse in a close angle (<10°). […] The photodynamics were monitored by continuous exposure to a xenon lamp for visible region and halogen lamp for near-IR region as a probe light and a photomultiplier tube (Hamamatsu 2949) as a detector.

[3] = Photobleaching in 17% bovine calf serum; type: physicochemical; details: 17% BCS, dye laser 75 mW/cm^2, 785 nm for 4
Protocol: Photobleaching was performed in quartz cuvettes on a 5 μM solution of 2 and a 25 μM solution of 4 in 17% BCS. The higher molarity was chosen to approximate the absorbance of 2 at 5 μM. A dye laser was used at dose rate 75 mW/cm^2, and excitation wavelength for 2 was 660 nm and for 4 was 785 nm.
In photodynamic therapy, photobleaching is the photochemical alteration of a chromophore or a fluorophore molecule such that could either permanently is unable to fluoresce or alter its fluorescence characteristics. This is caused by cleaving of the covalent bonds or non-specific reaction between the reactive oxygen species (e.g., singlet oxygen) and the molecule. These […] species formed by conversion of the molecular oxygen present in tumor to singlet oxygen by exposing the photosensitizer with light at an appropriate wavelength. The rate of photobleaching of the PS should depend (a) availability of oxygen, (b) photostability of PS and finally (c) the singlet oxygen (or other reactive oxygen species) producing ability of the PS.
To investigate the photobleaching characteristics of the photosensitizers, compounds 2 and 4 in equimolar concentrations (5 μM) were taken in quartz cuvettes in 17% bovine calf serum. Dye lasers with appropriate wavelength (2: 660 nm and 4: 785 nm) were used at a dose rate of 75 mW/cm^2. Both the compounds in formulated forms were irradiated with light and the absorption spectra at their long wavelength absorptions were measured with time. The decay in absorbance was plotted against the time of light exposure.

Colon26 tumors = assay: In vivo whole body tumor fluorescence imaging (IVIS Spectrum); set-up: species or system BALB/c mice; details: non-radioactive analogs, i.v., post-injection
Protocol: Before evaluating in vivo PDT efficacy of PS 4 by exposing the tumors with light, the time point for optimal tumor uptake of PS was determined by whole body fluorescence imaging of tumored mice at various time points after injecting the PS.
The multi-spectral imaging system, IVIS Spectrum (Perkin-Elmer) along with Living Image (image acquisition and analysis software) was used. IVIS Spectrum has the capability to use either trans-illumination (from the bottom) or epi-illumination (from the top) to illuminate in vivo fluorescent sources. […] Regions of interest (ROI) were defined for areas of compound accumulation (tumor, liver, skin) and total and average signal within the region were recorded. Fluorescent intensity is expressed as the total radiant efficiency ([p/s]/[μW/cm^2]. Results are expressed as mean total radiant efficiency of three mice±SD.

Singlet oxygen quantum yield φ [1]: 0.02
energy transfer rate constant, triplet excited state to O2 ([2]; PhCN): 1.4e+09 M⁻¹ s⁻¹
triplet decay rate constant in the presence of dissolved O2 ([2]; air-saturated PhCN): 2.3e+06 s⁻¹
triplet excited state lifetime τ ([2]; deaerated (argon-saturated) PhCN, T-T absorption decay at 580 nm): 38 μs
photobleaching (in words) [3]: negligible photobleaching
time of optimal uptake in tumor (fluorescence imaging) (Colon26 tumors): 24 h
Substance: methyl 3-[1′-(m-iodobenzyloxy)ethyl]-3-devinyl-13^3-keto-13^2-methoxycyclohexene [Compound 4]

From patent US20220194952A1, “TETRAPYRROLIC CONJUGATES AND USES THEREOF FOR IMAGING” (Health Research, Inc., priority 2019, published 2022)
